Test results taken from US9931335B2, “Desethylhydroxychloroquine for the treatment of diseases associated with inflammation” (The Board of Trustees of the Leland Stanford Junior …, priority 2013, dated 2018).
Entries after “also recorded” stand apart in the source; their conditions may differ.

Key:
[1] = test system: DMM-induced OA in C57BL6 (B6) mice; assay: Destabilization of the medial meniscus (DMM) mouse model of osteoarthritis; type: in vivo; conditions: 3 months, vs vehicle; for Cartilage Degeneration Score (OA score): aminoquinolines 100 mg/kg/day, atorvastatin 40 mg/kg/day, oral gavage from 1 week after DMM, two-tailed T test
Method: One week following surgical induction, treatment was initiated with vehicle control, hydroxychloroquine (HCQ), or desethylhydroxychloroquine (DHCQ) dosed at 100 mg/kg/day by oral gavage (once per day). After 3 months, mice were sacrificed, joints harvested, joint sections cut, and tissue sections stained with safranin-O. An examiner blinded to treatment used microscopy to score the severity of OA. The “Cartilage Degeneration Score” (also known as the “OA score”, “Severity Score” and “Histology Score”) was determined by a blinded examiner, and the two-tailed T test used to determine if there were statistical differences in the Cartilage Degeneration Scores between groups.
The histologic sections generated at the termination of the mouse OA experiment presented above and in FIG. 5 were subject to blinded scoring for the “Osteophyte Score” (measure of the amount of osteophyte or ectopic bone formation) and “Synovitis Score” (measure of the amount of synovial and joint inflammation). The scores between groups were compared by two-tailed T test.
Experiments were performed under protocols approved by the Stanford University Committee of Animal Research and in accordance with NIH guidelines. Murine OA was generated by surgically by destabilization of the DMM (Glasson, S., S., et al., Osteoarthritis Cartilage, 15: 1061-1069 (2007)).
Mice were euthanized 3 months after surgery. Their stifle joints were decalcified in EDTA solution, fixed in 4% paraformaldehyde, and embedded in paraffin. Serial 4 micron sections were cut and stained with toluidine blue. Scoring of arthritis in these histology sections was done according to a modified version of previously described composite scoring systems (Kamekura, S., et al. Osteoarthritis Cartilage 13: 632-641 (2005); Bendele, A. M., J Musculoskelet Neuronal Interact., 1: 363-376 (2001)). The “OA Score” was calculated as follows: cartilage degeneration (0-4) was multiplied by the width (1=1/3, 2=2/3, and 3=3/3 of surface area) of each third of the femoral-medial and tibial-medial condyles, and the scores for the 6 regions were summed. To evaluate osteophyte (ectopic bone) formation, we scored toluidine-blue-stained sections according to a previously described scoring system (Kamekura, S., et al. Osteoarthritis development in novel experimental mouse models induced by knee joint instability. Osteoarthritis Cartilage 13, 632-641 (2005)): 0, none; 1, formation of cartilage-like tissues; 2, increase of cartilaginous matrix; 3, endochondral ossification. To evaluate synovitis, we scored H&E-stained sections according to a previously described scoring system (Blom, A. B., et al. Synovial lining macrophages mediate osteophyte formation during experimental osteoarthritis. Osteoarthritis Cartilage 12, 627-635 (2004)): 0, no changes compared to normal joints; 1, thickening of the synovial lining and some influx of inflammatory cells; 2, thickening of the synovial lining and intermediate influx of inflammatory cells; and 3, profound thickening of the synovial lining (more than four cell layers) and maximal observed influx of inflammatory cells. Scores for osteophyte formation and synovitis were recorded for the femoral-medial and the tibial-medial condyles on the operated side of the joint, and the scores for the two regions were summed and statistical comparisons performed using a two-tailed T test.
Treatment was started 1 week after surgical induction of destabilization of the medial meniscus (DMM), a time point at which mice were at increased risk for the development of OA.

[2] = LC/MS tissue levels of HCQ and DHCQ in plasma, retina and synovium of dosed mice; type: in vivo, mouse; conditions: for accumulation in the retina: 100 mg/kg/day oral gavage, LC/MS
Excerpt: The major risk to long term administration of hydroxychloroquine is retinal accumulation and subsequent ocular toxicity (Terahi et al, 2008. Semin Opthal. (3):201-208. PMID). We sought to evaluate the retinal deposition of HCQ and DHCQ. To do so, we performed mass spectrometric analysis of drug and metabolite content in retina, in operated side and non-operated side synovial tissue, and in plasma derived from mice treated with either HCQ or DHCQ. […] The indicated statistical comparisons between the levels measured in the indicated tissue from each group were compared by two-tailed T test (*P<0.05, **P<0.01, ***P<0.001).
Mice, dosing with HCQ and DHCQ, isolation of specific tissues, and mass spectrometry measurement of HCQ and DHCQ levels in tissue samples. C57BL6 (B6) mice (n=5 per group) were treated with HCQ (100 mg/kg/day) or DHCQ (100 mg/kg/day) by oral gavage for 3 months. At experimental termination (3 months) mice were sacrificed and eyes removed under dissecting microscope. Curved microdisecting scissors was used to cut along the cornea and sclera, remove and discard the lens and visceral leaving the neural retina with eye shell to be placed in PBS and homogenized followed by centrifugation. Synovium was microdissected from the operated knee or the contralateral non-operated knee, normalized by weight of tissue, and placed in HPLC grade water before being homogenized and centrifuged. Plasma was obtained by tail bleeding. Plasma and tissue samples were precipitated with acetonitrile and levels of HCQ, DHCQ, BDCQ were evaluated by liquid chromatography/mass spectrometry (LC/MS) at Climax Laboratories, Inc. (San Jose, Calif.). The LC/MS analysis was conducted by using Shimazu 10A HPLC system (Shimadzu Scientific Instruments, Inc., Pleasanton, Calif.) with ACE C18, 50×2.1 HPLC column and ABSciex API-4000 Mass Spectrometer (ABSciex Corp. Foster City, Calif.) with Electrospray Ionization (ESI) and negative Multiple Reaction Monitoring (MRM) Scan. A gradient elution was used in separating the test compound with a mobile phase A (0.1% Formic Acid in 5 mM of NH4AC) and B (0.1% Formic acid in acetonitrile).

[3] = test system: ganglion cell layer (GCL) of the retina; assay: Retinal histology of mice dosed for 3 months; type: in vivo, mouse; conditions: for number of cells (nuclei) in the GCL vs vehicle / nuclear shrinkage in the ganglion cell layer (GCL): 100 mg/kg/day, 3 months; for nuclear shrinkage in the ganglion cell layer (GCL): H&E
Excerpt: At the time of termination, the eyes from each treatment group were carefully microdissected to ensure the retina remained intact, the eye was fixed in formalin, and the fixed eye sectioned to visualize the retina. […] Representative images of H&E stained retinal sections are presented from each treatment group in FIG. 17.
Using the histologic and quantitative pathology methodology adapted from Shichiri, et al (Shichiri, et al, JBC. 2012, 287(4):2926-34. PMID 22147702), the H&E stained retinal sections were evaluated for number of nuclei in the ganglion cell layer (GCL) (FIG. 18). The graph presents quantitation of the number of nuclei in the GCL of the retina from the indicated treatment groups. The number of cells in the GCL of the retina for each treatment group was compared with the number of cells in vehicle-treated control by two-tailed T test.

[4] = test system: inflammatory cytokines in mouse OA synovium; assay: Multiplex cytokine assay of OA synovial tissue from treated DMM mice; type: in vivo; conditions: for levels of inflammatory cytokines in OA synovium vs vehicle control: heat map, multiplex bead assay
Excerpt: From a parallel experiment to the mouse OA experiment presented in Example 12 and FIG. 19, following in vivo dosing and at the time of termination OA synovial tissue was microdissected, homogenized to form a lysate, centrifuged, and supernatants assayed for levels of inflammatory cytokines using a multiplex bead-based cytokine assay (BioRad Laboratories, Hercules, Calif.).

SMILES | Osteophyte Score ([1]; 100 mg/kg/day oral gavage) | Cartilage Degeneration Score (OA score) [1] | Synovitis Score ([1]; oral gavage) | accumulation in the retina ([2]; 3 months) | level in surgical joint synovial tissue relative to retina ([2]; 100 mg/kg/day, 3 months) | level in retina relative to plasma ([2]; DHCQ in both HCQ and DHCQ dosed mice) | number of cells (nuclei) in the GCL vs vehicle [3] | nuclear shrinkage in the ganglion cell layer (GCL) [3] | cytokines, DHCQ monotherapy vs vehicle control, atorvastatin alone, HCQ+atorvastatin and HCQ alone (SAM) ([4]; false discovery rate <0.1%) | levels of inflammatory cytokines in OA synovium vs vehicle control [4] | Cartilage Degeneration Score (OA score) ([1]; listed as Hydroxychloroquine) | Kp at 3 months ([2]; C57BL6, mouse, retina/plasma, oral, HCQ in HCQ dosed mice, 100 mg/kg/day, 3 months, read-out: level in retina/level in plasma) | retinal cell loss in GCL, HCQ compared to DHCQ ([3]; P<0.05)
CC(CCCNCCO)Nc1ccnc2cc(Cl)ccc12 (stereo not shown) [DHCQ, desethylhydroxychloroquine] | statistically prevented and reduced; also recorded: statistically significant protection against the development of synovitis and osteophytes | statistically prevented and reduced the severity of OA; also recorded: statistically prevented and reduced the severity of cartilage degeneration | statistically prevented and reduced; also recorded: statistically significant protection against the development of synovitis and osteophytes | only low-level accumulation in the retina | accumulated at higher levels in the surgical joint synovial tissue relative to the low levels measured in the retina | much lower levels in plasma as compared to the retina | no reduction in the number of cells in the GCL | No increase in nuclear shrinkage in the GCL | reduced the levels of multiple inflammatory cytokines including IL-1b, MCP-1, IFNγ, TNF-alpha IL12p40, and IL-12p70 | lower |  |  | 
CCN(CCO)CCCC(C)Nc1ccnc2cc(Cl)ccc12 (stereo not shown) [HCQ, hydroxychloroquine] |  | only resulted in trends towards improvement; also recorded: did not result in a statistically significant reduction in the severity of OA |  | accumulated a high levels in the retina | accumulated at high levels in the retina relative to the low levels measured in the surgical joint synovial tissue |  | significantly lower | increased nuclear shrinkage in the GCL |  | lower | did not result in a statistically signification prevention or reduction in OA severity | ~8.5 | statistically increased retinal cell loss
